Patent US11596639B2, “Substituted indole Mcl-1 inhibitors” (Vanderbilt University, priority 2016, dated 2023)
Where two headings read alike, the source gives them in different places.

Columns and labels:
[1] = test system: H929 human cancer cell lines; experiment: Cellular viability / proliferation (Cell TiterGlo, 72 h); format: cell-based
Procedure, shortened: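 Plating is at 1,000 cells/well in 10% FBS medium; after 24 h, compound is added as a 2-fold series starting at 50 μM with under 1% DMSO.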

Mcl-1 = Mcl-1 (Homo sapiens (Human), UniProt Q07820); experiment: TR-FRET binding assay, FITC-Bak peptide and MBP-tagged Mcl-1; details: read-out: Ki for Inhibition of Mcl-1 by TR-FRET assay
Description: Compounds are diluted in DMSO in a 16-point, semilog serial dilution scheme. […] The plate was mixed and incubated for 3 hours at room temperature. […] TR-FRET signal is plotted and IC50 and Ki values are calculated in the same manner as the fluorescence polarization anisotropy based competition assays.

[2] = Homo sapiens, NCI-H929, 72 h, read-out: GI50 on cellular proliferation of H929 human cancer cell lines, H929 cells, 72 h, Cell TiterGlo, 10% FBS

Mcl-1, sequence (Q07820 172-327): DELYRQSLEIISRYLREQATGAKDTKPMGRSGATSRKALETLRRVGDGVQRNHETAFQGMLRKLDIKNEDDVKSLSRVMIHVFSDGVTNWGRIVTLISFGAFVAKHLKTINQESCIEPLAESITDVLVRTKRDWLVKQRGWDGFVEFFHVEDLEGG

Compound | GI50 [1, 2] [nM] | Ki (Mcl-1) [nM] | GI50 ([1]; H929 cells, 72 h, Cell TiterGlo, 10% FBS, read-out: GI50 on cellular proliferation of H929 human cancer cell lines) [nM]
Cc1cc(OCCCc2c3n(c4c(-c5c(C)cc(O)cc5C)c(Cl)ccc24)[C@H](C)CN(c2cn(C)c4ccc(C(=O)O)cc24)C3=O)cc(C)c1Cl [Example 496, (R)-3-(7-chloro-10-(3-(4-chloro-3,5-dimethylphenoxy)propyl)-6-(4-hydroxy-2,6-dimethylphenyl)-4-methyl-1-oxo-3,4-dihydropyrazino[1,2-a]indol-2(1H)-yl)-1-methyl-1H-indole-5-carboxylic acid] | 1200 | 0.64 | –
Cc1cc(OCCCc2c3n(c4c(-c5c(C)nn(C)c5C)c(Cl)ccc24)[C@H](C)CN(c2cn(CC(=O)N(C)C)c4ccc(-c5ncn(C)n5)cc24)C3=O)cc(C)c1Cl [Example 560, (R)-2-(3-(7-Chloro-10-(3-(4-chloro-3,5-dimethylphenoxy)propyl)-4-methyl-1-oxo-6-(1,3,5-trimethyl-1H-pyrazol-4-yl)-3,4-dihydropyrazino[1,2-a]indol-2(1H)-yl)-5-(1-methyl-1H-1,2,4-triazol-3-yl)-1H-indol-1-yl)-N,N-dimethylacetamide] | 270 | 0.53 | –
COc1ccc(N2C[C@@H](C)n3c(c(CCCOc4cc(C)c(Cl)c(C)c4)c4ccc(Cl)c(-c5c(C)nn(C)c5C)c43)C2=O)c2c1cc(C(=O)O)n2Cc1cc(C)ccn1 [Example 582, (R)-7-(7-chloro-10-(3-(4-chloro-3,5-dimethylphenoxy)propyl)-4-methyl-1-oxo-6-(1,3,5-trimethyl-1H-pyrazol-4-yl)-3,4-dihydropyrazino[1,2-a]indol-2(1H)-yl)-4-methoxy-1-((4-methylpyridin-2-yl)methyl)-1H-indole-2-carboxylic acid] | 220 | 0.28 | –
Cc1cc(OCCCc2c3n(c4c(-c5c(C)nn(C)c5C)c(Cl)ccc24)[C@H](C)CN(c2cn(Cc4cccnc4)c4ccc(C(=O)O)cc24)C3=O)cc(C)c1Cl [Example 563, (R)-3-(7-chloro-10-(3-(4-chloro-3,5-dimethylphenoxy)propyl)-4-methyl-1-oxo-6-(1,3,5-trimethyl-1H-pyrazol-4-yl)-3,4-dihydropyrazino[1,2-a]indol-2(1H)-yl)-1-(pyridin-3-ylmethyl)-1H-indole-5-carboxylic acid] | 1500 | < 0.2 | –
CCc1ccnc(Cn2c(C(=O)O)cc3cc(C)cc(N4C[C@@H](C)n5c(c(CCCOc6cc(C)c(Cl)c(C)c6)c6ccc(Cl)c(-c7c(C)nn(C)c7C)c65)C4=O)c32)c1 [Example 627, (R)-7-(7-chloro-10-(3-(4-chloro-3,5-dimethylphenoxy)propyl)-4-methyl-1-oxo-6-(1,3,5-trimethyl-1H-pyrazol-4-yl)-3,4-dihydropyrazino[1,2-a]indol-2(1H)-yl)-1-((4-ethylpyridin-2-yl)methyl)-5-methyl-1H-indole-2-carboxylic acid] | < 200 | < 0.2 | –
Cc1cc(OCCCc2c3n(c4c(-c5c(C)nn(C)c5C)c(Cl)ccc24)[C@H](C)CN(c2cn(C)c4ccc(-n5nnnc5C)nc24)C3=O)cc(C)c1Cl [Example 679, (R)-7-Chloro-10-(3-(4-chloro-3,5-dimethylphenoxy)propyl)-4-methyl-2-(1-methyl-5-(5-methyl-JH-tetrazol-1-yl)-1H-pyrrolo[3,2-b]pyridin-3-yl)-6-(1,3,5-trimethyl-1H-pyrazol-4-yl)-3,4-dihydropyrazino[1,2-a]indol-1(2H)-one] | – | 3.1 | 940
Cc1cc(OCCCc2c3n(c4c(-c5c(C)nn(C)c5C)c(Cl)ccc24)[C@H](C)CN(c2cc(Oc4ccccn4)cc4cc(C(=O)O)n(C)c24)C3=O)cc(C)c1Cl [Example 522, (R)-7-(7-Chloro-10-(3-(4-chloro-3,5-dimethylphenoxy)propyl)-4-methyl-1-oxo-6-(1,3,5-trimethyl-1H-pyrazol-4-yl)-3,4-dihydropyrazino[1,2-a]indol-2(1H)-yl)-1-methyl-5-(pyridin-2-yloxy)-1H-indole-2-carboxylic acid] | 750 | 0.32 | –
Cc1cc(OCCCc2c3n(c4c(-c5c(C)nn(C)c5C)c(Cl)ccc24)[C@H](C)CN(c2cc(OCc4cccnc4)cc4cc(C(=O)O)n(C)c24)C3=O)cc(C)c1Cl [Example 487, (R)-7-(7-Chloro-10-(3-(4-chloro-3,5-dimethylphenoxy)propyl)-4-methyl-1-oxo-6-(1,3,5-trimethyl-1H-pyrazol-4-yl)-3,4-dihydropyrazino[1,2-a]indol-2(1H)-yl)-1-methyl-5-(pyridin-3-ylmethoxy)-1H-indole-2-carboxylic acid] | 280 | 0.23 | –
Cc1cc(N2C[C@@H](C)n3c(c(CCCOc4cc(C)c(Cl)c(C)c4)c4ccc(Cl)c(-c5c(C)nn(C)c5C)c43)C2=O)c2c(c1)cc1n2CCOC1=O [Example 685, (R)-6-(7-chloro-10-(3-(4-chloro-3,5-dimethylphenoxy)propyl)-4-methyl-1-oxo-6-(1,3,5-trimethyl-1H-pyrazol-4-yl)-3,4-dihydropyrazino[1,2-a]indol-2(1H)-yl)-8-methyl-3,4-dihydro-1H-[1,4]oxazino[4,3-a]indol-1-one] | 1400 | 3.2 | –
Cc1cc(OCCCc2c3n(c4c(-c5c(C)nn(C)c5C)c(Cl)ccc24)[C@H](C)CN(c2cn(Cc4ccccn4)c4ccc(C(=O)O)cc24)C3=O)cc(C)c1Cl [Example 561, (R)-3-(7-chloro-10-(3-(4-chloro-3,5-dimethylphenoxy)propyl)-4-methyl-1-oxo-6-(1,3,5-trimethyl-1H-pyrazol-4-yl)-3,4-dihydropyrazino[1,2-a]indol-2(1H)-yl)-1-(pyridin-2-ylmethyl)-1H-indole-5-carboxylic acid] | 510 | < 0.2 | –
Cc1cc(OCCCc2c3n(c4c(-c5c(C)nn(C)c5C)c(Cl)ccc24)[C@H](C)CN(c2cn(Cc4ccncc4)c4ccc(C(=O)O)cc24)C3=O)cc(C)c1Cl [Example 555, (R)-3-(7-chloro-10-(3-(4-chloro-3,5-dimethylphenoxy)propyl)-4-methyl-1-oxo-6-(1,3,5-trimethyl-1H-pyrazol-4-yl)-3,4-dihydropyrazino[1,2-a]indol-2(1H)-yl)-1-(pyridin-4-ylmethyl)-1H-indole-5-carboxylic acid] | 1300 | 0.26 | –
Cc1cc(OCCCc2c3n(c4c(-c5c(C)nn(C)c5C)c(Cl)ccc24)[C@H](C)CN(c2cc(N(C)C(=O)[C@H](C)N(C)C)cc4c(C(=O)O)cn(C)c24)C3=O)cc(C)c1Cl [Example 608, 7-((R)-7-chloro-10-(3-(4-chloro-3,5-dimethylphenoxy)propyl)-4-methyl-1-oxo-6-(1,3,5-trimethyl-1H-pyrazol-4-yl)-3,4-dihydropyrazino[1,2-a]indol-2(1H)-yl)-5-((S)-2-(dimethylamino)-N-methylpropanamido)-1-methyl-1H-indole-3-carboxylic acid] | 304000 | 0.91 | –
Cc1cc(OCCCc2c3n(c4c(-c5c(C)nn(C)c5C)c(Cl)ccc24)[C@H](C)CN(c2cc(C(=O)N4CCN(C)CC4)cc4cc(C(=O)O)n(C)c24)C3=O)cc(C)c1Cl [Example 626, (R)-7-(7-chloro-10-(3-(4-chloro-3,5-dimethylphenoxy)propyl)-4-methyl-1-oxo-6-(1,3,5-trimethyl-1H-pyrazol-4-yl)-3,4-dihydropyrazino[1,2-a]indol-2(1H)-yl)-1-methyl-5-(4-methylpiperazine-1-carbonyl)-1H-indole-2-carboxylic acid] | 4400 | < 0.2 | –
Cc1cc(OCCCc2c3n(c4c(-c5c(C)nn(C)c5C)c(Cl)ccc24)[C@H](C)CN(c2cccc4cc(C(=O)O)n(Cc5cnn(C)n5)c24)C3=O)cc(C)c1Cl [Example 570, (R)-7-(7-chloro-10-(3-(4-chloro-3,5-dimethylphenoxy)propyl)-4-methyl-1-oxo-6-(1,3,5-trimethyl-1H-pyrazol-4-yl)-3,4-dihydropyrazino[1,2-a]indol-2(1H)-yl)-1-((2-methyl-2H-1,2,3-triazol-4-yl)methyl)-1H-indole-2-carboxylic acid] | 560 | < 0.2 | –
Cc1cc(N2C[C@@H](C)n3c(c(CCCOc4cc(C)c(Cl)c(C)c4)c4ccc(Cl)c(-c5c(C)nn(C)c5C)c43)C2=O)c2c(c1)cc(C(=O)O)n2Cc1cccc(N2CCCCC2)n1 [Example 505, (R)-7-(7-Chloro-10-(3-(4-chloro-3,5-dimethylphenoxy)propyl)-4-methyl-1-oxo-6-(1,3,5-trimethyl-1H-pyrazol-4-yl)-3,4-dihydropyrazino[1,2-a]indol-2(1H)-yl)-5-methyl-1-((6-(piperidin-1-yl)pyridin-2-yl)methyl)-1H-indole-2-carboxylic acid] | 3200 | 1.3 | –
COCCn1cc(N2C[C@@H](C)n3c(c(CCCOc4cc(C)c(Cl)c(C)c4)c4ccc(Cl)c(-c5c(C)nn(C)c5C)c43)C2=O)c2cc(-c3ncn(CCN4CCOCC4)n3)ccc21 [Example 615, (R)-7-Chloro-10-(3-(4-chloro-3,5-dimethylphenoxy)propyl)-2-(1-(2-methoxyethyl)-5-(1-(2-morpholinoethyl)-1H-1,2,4-triazol-3-yl)-1H-indol-3-yl)-4-methyl-6-(1,3,5-trimethyl-1H-pyrazol-4-yl)-3,4-dihydropyrazino[1,2-a]indol-1(2H)-one] | 370 | 9.6 | –
Cc1cc(N2C[C@@H](C)n3c(c(CCCOc4cc(C)c(Cl)c(C)c4)c4ccc(Cl)c(-c5c(C)nn(C)c5C)c43)C2=O)c2c(c1)cc(C(=O)O)n2Cc1cc(N2CCCCC2)ccn1 [Example 504, (R)-7-(7-Chloro-10-(3-(4-chloro-3,5-dimethylphenoxy)propyl)-4-methyl-1-oxo-6-(1,3,5-trimethyl-1H-pyrazol-4-yl)-3,4-dihydropyrazino[1,2-a]indol-2(1H)-yl)-5-methyl-1-((4-(piperidin-1-yl)pyridin-2-yl)methyl)-1H-indole-2-carboxylic acid] | 1000 | 0.23 | –
